According to ChEMBL document CHEMBL1201862, “PubChem BioAssay data set” (2004):
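Five concentrations, 48 hours, 96-well plates. GI50 = concentration required for 50% inhibition of growth.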 Active and inactive are the calls of the source. Cut-off read from the data, not from the text of the source: active = GI50 up to about 1.1 µM and inactive = higher.

Experiments:
Assay in all cases: NCI tumour cell line growth inhibition, 48 h
HCT-116 = tested on: HCT-116
HOP-62 = tested on: HOP-62
HOP-92 = tested on: HOP-92
IGROV-1 = tested on: IGROV-1
MDA-MB-231 = tested on: MDA-MB-231
MDA-N = tested on: MDA-N
OVCAR-3 = tested on: OVCAR-3
OVCAR-8 = tested on: OVCAR-8
PC-3 = tested on: PC-3
SF-295 = tested on: SF-295
SK-MEL-28 = tested on: SK-MEL-28
SNB-19 = tested on: SNB-19
SR = tested on: SR
TK-10 = tested on: TK-10
UACC-257 = tested on: UACC-257
UACC-62 = tested on: UACC-62
COLO 205 = tested on: COLO 205
MCF7 = tested on: MCF7
SF-539 = tested on: SF-539
SK-OV-3 = tested on: SK-OV-3

Measured: GI50

CC(CO)(CO)Nc1ncnc2ccccc12
inactive: HCT-116 > 100 µM | HOP-62 > 100 µM | HOP-92 > 100 µM | IGROV-1 > 100 µM | MDA-MB-231 > 100 µM | MDA-N > 100 µM | OVCAR-3 > 100 µM | OVCAR-8 > 100 µM | PC-3 > 100 µM | SF-295 > 100 µM | SK-MEL-28 > 100 µM | SNB-19 > 100 µM | SR 66.1 µM | TK-10 > 100 µM | UACC-257 > 100 µM | UACC-62 > 100 µM

N#Cc1c2ccc([N+](=O)[O-])cc2c(=O)n2c1sc1ccccc12
inactive: COLO 205 6.87 µM | HCT-116 11.1 µM | HOP-92 13.5 µM | MDA-MB-231 17.2 µM | MDA-N 80.2 µM | OVCAR-8 35.2 µM | PC-3 14.8 µM | SK-MEL-28 17.6 µM | SNB-19 10.5 µM | SR 3.94 µM | TK-10 16 µM | UACC-257 78.5 µM | UACC-62 28 µM

c1cc(CSP234N5CCN2CCN3CCN4CC5)ccc1CSP123N4CCN1CCN2CCN3CC4
inactive: COLO 205 > 100 µM | HCT-116 72.8 µM | HOP-62 > 100 µM | HOP-92 92.3 µM | IGROV-1 > 100 µM | MCF7 > 100 µM | MDA-MB-231 62.7 µM | MDA-N > 100 µM | OVCAR-3 76.4 µM | OVCAR-8 > 100 µM | PC-3 > 100 µM | SF-295 > 100 µM | SF-539 64.6 µM | SK-MEL-28 > 100 µM | SNB-19 > 100 µM | TK-10 > 100 µM | UACC-257 > 100 µM | UACC-62 > 100 µM

CCOC(=O)C1(C/C=C\CBr)CCCCCCC1=O (centres undefined)
inactive: COLO 205 > 100 µM | HCT-116 > 100 µM | HOP-62 > 100 µM | IGROV-1 > 100 µM | MCF7 > 100 µM | MDA-MB-231 > 100 µM | MDA-N > 100 µM | OVCAR-8 > 100 µM | PC-3 > 100 µM | SF-295 > 100 µM | SF-539 > 100 µM | SK-MEL-28 > 100 µM | SK-OV-3 > 100 µM | SNB-19 > 100 µM | TK-10 91 µM | UACC-257 > 100 µM | UACC-62 > 100 µM

Cc1ccc(C2C(C(=O)C(C)(C)C)N2S(=O)(=O)c2ccc(C)cc2)cc1 (centres undefined)
inactive: COLO 205 19.5 µM | HCT-116 18.7 µM | HOP-62 33.5 µM | IGROV-1 17.5 µM | MCF7 23.8 µM | MDA-MB-231 19.8 µM | MDA-N 19.1 µM | OVCAR-3 26.5 µM | OVCAR-8 21.3 µM | PC-3 29.7 µM | SF-295 41.6 µM | SF-539 14.9 µM | SK-MEL-28 28.1 µM | SK-OV-3 > 100 µM | SNB-19 22.5 µM | TK-10 28.6 µM | UACC-62 15.8 µM

CCOC(=O)c1ccc(/N=c2/[nH]c3ccccc3s/c2=N/c2ccc(C(=O)OCC)cc2)cc1
inactive: COLO 205 > 100 µM | HCT-116 53.1 µM | HOP-62 > 100 µM | HOP-92 > 100 µM | IGROV-1 > 100 µM | MDA-MB-231 > 100 µM | MDA-N > 100 µM | OVCAR-8 86.7 µM | PC-3 > 100 µM | SF-295 83 µM | SF-539 72.8 µM | SK-MEL-28 > 100 µM | SK-OV-3 > 100 µM | SNB-19 > 100 µM | SR > 100 µM | TK-10 > 100 µM | UACC-257 > 100 µM | UACC-62 > 100 µM
